Test system: MV-4-11 cells
Test: Gene expression microarray analysis (Affymetrix PrimeView) and GSEA
Type: cell-based, human
Set-up: RFU PODN (11730768_x_at) / Fold change /veh PODN (11730768_x_at) / RFU LINC00158 (11744669_a_at) / Fold change /veh LINC00158 (11744669_a_at) / RFU DUSP10 (11751237_a_at) / Fold change /veh DUSP10 (11751237_a_at) / RFU ID3 (11757404_x_at) / Fold change /veh ID3 (11757404_x_at) / RFU PLEKHG5 (11737974_s_at) / Fold change /veh PLEKHG5 (11737974_s_at) / RFU LRRC4B (11730491_at) / Fold change /veh LRRC4B (11730491_at) / RFU GIMAP4 (11747438_a_at) / Fold change /veh GIMAP4 (11747438_a_at) / RFU KRT8 (11758183_x_at) / Fold change /veh KRT8 (11758183_x_at) / RFU CNN1 (11734310_a_at) / Fold change /veh CNN1 (11734310_a_at) / RFU VPS37D (11726825_at) / Fold change /veh VPS37D (11726825_at) / RFU C10orf10 (11716522_x_at) / Fold change /veh C10orf10 (11716522_x_at) / RFU KIR2DL2 /// KIR2DL4 /// KIR2DL5A /// KIR2DL5B /// KIR2DS1 /// KIR2DS2 /// KIR2DS3 /// KIR2DS4 /// KIR3DL3 /// KIR3DL3 /// KIR3DS1 (11738374_at) / Fold change /veh KIR2DL2 /// KIR2DL4 /// KIR2DL5A /// KIR2DL5B /// KIR2DS1 /// KIR2DS2 /// KIR2DS3 /// KIR2DS4 /// KIR3DL3 /// KIR3DL3 /// KIR3DS1 (11738374_at) / RFU C1QL1 (11718748_at) / Fold change /veh C1QL1 (11718748_at) / RFU TMPRSS4 (11747572_a_at) / Fold change /veh TMPRSS4 (11747572_a_at) / RFU HAMP (11756126_x_at) / Fold change /veh HAMP (11756126_x_at) / RFU RNFT2 (11725882_a_at) / Fold change /veh RNFT2 (11725882_a_at) / RFU NR4A2 (11747474_a_at) / Fold change /veh NR4A2 (11747474_a_at) / RFU ABCC12 (11746883_a_at) / Fold change /veh ABCC12 (11746883_a_at) / RFU TMEM136 (11760407_x_at) / Fold change /veh TMEM136 (11760407_x_at) / RFU CLDN22 /// WWC2 (11732394_at) / Fold change /veh CLDN22 /// WWC2 (11732394_at) / RFU HLA-DPB1 (11760878_x_at) / Fold change /veh HLA-DPB1 (11760878_x_at) / RFU SPINT1 (11716480_a_at) / Fold change /veh SPINT1 (11716480_a_at) / RFU GAP43 (11754022_s_at) / Fold change /veh GAP43 (11754022_s_at) / RFU A4GNT (11735810_at) / Fold change /veh A4GNT (11735810_at) / RFU PRB3 (11715151_x_at) / Fold change /veh PRB3 (11715151_x_at) / RFU TUBB4B (11761932_at) / Fold change /veh TUBB4B (11761932_at) / RFU CAPN14 (11732068_a_at) / Fold change /veh CAPN14 (11732068_a_at) / RFU TMCC2 (11721928_a_at) / Fold change /veh TMCC2 (11721928_a_at) / RFU IRGQ (11745062_a_at) / Fold change /veh IRGQ (11745062_a_at) / RFU FAM174B (11720279_a_at) / Fold change /veh FAM174B (11720279_a_at) / RFU TMPRSS4 (11748680_a_at) / Fold change /veh TMPRSS4 (11748680_a_at) / RFU FAM212B (11763350_a_at) / Fold change /veh FAM212B (11763350_a_at) / RFU PLEKHG5 (11743358_a_at) / Fold change /veh PLEKHG5 (11743358_a_at) / RFU ZSCAN30 (11745921_a_at) / Fold change /veh ZSCAN30 (11745921_a_at) / RFU CMKLR1 (11741424_a_at) / Fold change /veh CMKLR1 (11741424_a_at) / RFU LOC101060620 /// MAPK8IP1 (11723275_at) / Fold change /veh LOC101060620 /// MAPK8IP1 (11723275_at) / RFU SPTSSB (11747773_x_at) / Fold change /veh SPTSSB (11747773_x_at) / RFU PRSS12 (11739890_at) / Fold change /veh PRSS12 (11739890_at) / RFU BIN1 (11741810_x_at) / Fold change /veh BIN1 (11741810_x_at) / RFU WNT11 (11732464_a_at) / Fold change /veh WNT11 (11732464_a_at) / RFU C10orf10 (11716521_a_at) / Fold change /veh C10orf10 (11716521_a_at) / RFU C5orf56 (11738089_at) / Fold change /veh C5orf56 (11738089_at) / RFU CYB561 (11721691_x_at) / Fold change /veh CYB561 (11721691_x_at) / RFU ANKRD19P (11752326_a_at) / Fold change /veh ANKRD19P (11752326_a_at) / RFU OR2T12 /// OR2T33 /// OR2T8 (11738714_s_at) / Fold change /veh OR2T12 /// OR2T33 /// OR2T8 (11738714_s_at) / RFU VCAN (11748164_a_at) / Fold change /veh VCAN (11748164_a_at) / RFU JSRP1 (11732532_at) / Fold change /veh JSRP1 (11732532_at) / RFU KRTAP10-11 (11738290_x_at) / Fold change /veh KRTAP10-11 (11738290_x_at) / RFU MYO3A (11730013_a_at) / Fold change /veh MYO3A (11730013_a_at) / RFU EBF3 (11725865_a_at) / Fold change /veh EBF3 (11725865_a_at) / RFU CAMK2N1 (11719241_x_at) / Fold change /veh CAMK2N1 (11719241_x_at) / RFU C5orf56 (11738088_a_at) / Fold change /veh C5orf56 (11738088_a_at) / RFU OLFML3 (11715873_a_at) / Fold change /veh OLFML3 (11715873_a_at) / RFU LOC100653217 /// NTM (11731650_a_at) / Fold change /veh LOC100653217 /// NTM (11731650_a_at) / RFU MAPK11 (11762145_a_at) / Fold change /veh MAPK11 (11762145_a_at) / RFU FIZ1 (11724087_x_at) / Fold change /veh FIZ1 (11724087_x_at) / RFU OASL (11726364_x_at) / Fold change /veh OASL (11726364_x_at) / RFU SOX15 (11748057_x_at) / Fold change /veh SOX15 (11748057_x_at) / RFU CD79A (11719716_a_at) / Fold change /veh CD79A (11719716_a_at) / RFU HIST1H1D (11736915_at) / Fold change /veh HIST1H1D (11736915_at) / RFU CASKIN2 (11723855_a_at) / Fold change /veh CASKIN2 (11723855_a_at) / RFU LOC730098 (11760151_x_at) / Fold change /veh LOC730098 (11760151_x_at) / RFU OR4N2 (11742367_at) / Fold change /veh OR4N2 (11742367_at) / RFU PRRT2 (11749266_a_at) / Fold change /veh PRRT2 (11749266_a_at) / RFU SNX32 (11753110_a_at) / Fold change /veh SNX32 (11753110_a_at) / RFU CDHR5 (11726645_a_at) / Fold change /veh CDHR5 (11726645_a_at) / RFU RCAN1 (11760418_a_at) / Fold change /veh RCAN1 (11760418_a_at) / RFU FAM167A (11723789_a_at) / Fold change /veh FAM167A (11723789_a_at) / RFU FAM26E (11764081_at) / Fold change /veh FAM26E (11764081_at) / RFU ISYNA1 (11749810_s_at) / Fold change /veh ISYNA1 (11749810_s_at) / RFU ACY1 (11761880_at) / Fold change /veh ACY1 (11761880_at) / RFU 11764098_at / Fold change /veh 11764098_at / RFU SAMD14 (11745864_x_at) / Fold change /veh SAMD14 (11745864_x_at) / RFU NPB (11741838_a_at) / Fold change /veh NPB (11741838_a_at) / RFU TMPRSS6 (11731388_a_at) / Fold change /veh TMPRSS6 (11731388_a_at) / RFU KRTAP10-2 (11738614_at) / Fold change /veh KRTAP10-2 (11738614_at) / RFU ARHGAP8 /// PRR5-ARHGAP8 (11727945_x_at) / Fold change /veh ARHGAP8 /// PRR5-ARHGAP8 (11727945_x_at) / RFU KRTAP5-7 /// NADSYN1 (11734609_at) / Fold change /veh KRTAP5-7 /// NADSYN1 (11734609_at) / RFU RASL12 (11751679_a_at) / Fold change /veh RASL12 (11751679_a_at) / RFU CDKN2B (11736163_a_at) / Fold change /veh CDKN2B (11736163_a_at) / RFU PRF1 (11729649_at) / Fold change /veh PRF1 (11729649_at) / RFU, ZNF638 /// ZNF638-IT1 / Fold change vs veh, ZNF638 /// ZNF638-IT1 / RFU, PANK3 / Fold change vs veh, PANK3 / RFU, SH3YL1 / Fold change vs veh, SH3YL1 / RFU, ZEB2 / Fold change vs veh, ZEB2 / RFU, NRIP1 / Fold change vs veh, NRIP1 / RFU, PTTG1IP / Fold change vs veh, PTTG1IP / RFU, CAPN2 / Fold change vs veh, CAPN2 / RFU, MED14 / Fold change vs veh, MED14 / RFU, SNORA58 / Fold change vs veh, SNORA58 / RFU, C1orf63 / Fold change vs veh, C1orf63 / RFU, LRRFIP1 / Fold change vs veh, LRRFIP1 / RFU, NDUFAF7 / Fold change vs veh, NDUFAF7 / RFU, SLC12A2 / Fold change vs veh, SLC12A2 / RFU, IBTK / Fold change vs veh, IBTK / RFU, ESF1 / Fold change vs veh, ESF1 / Fold change vs veh, TMEM50B / RFU, TAOK1 / Fold change vs veh, TAOK1 / RFU, ACBD3 / Fold change vs veh, ACBD3 / RFU, TMA16 / Fold change vs veh, TMA16 / RFU, RWDD3 / Fold change vs veh, RWDD3 / RFU, BCAT1 / Fold change vs veh, BCAT1 / RFU, EDEM3 / Fold change vs veh, EDEM3 / RFU, TMEM33 / Fold change vs veh, TMEM33 / RFU, WDR75 / Fold change vs veh, WDR75 / RFU, AHCTF1 / Fold change vs veh, AHCTF1 / RFU, TFRC / Fold change vs veh, TFRC / RFU, ZDHHC17 / Fold change vs veh, ZDHHC17 / RFU, NOM1 / Fold change vs veh, NOM1 / RFU, ARL8B / Fold change vs veh, ARL8B / RFU, ZBTB11 / Fold change vs veh, ZBTB11 / RFU, TAMM41 / Fold change vs veh, TAMM41 / RFU, KIAA1704 /// LOC100996395 / Fold change vs veh, KIAA1704 /// LOC100996395 / RFU, ING1 / Fold change vs veh, ING1 / RFU, TRMT61B / Fold change vs veh, TRMT61B / RFU, FUBP3 / Fold change vs veh, FUBP3 / RFU, TP53 / Fold change vs veh, TP53 / RFU, TNKS2 / Fold change vs veh, TNKS2 / RFU, ZFP14 / Fold change vs veh, ZFP14 / RFU, ACTR2 / Fold change vs veh, ACTR2 / RFU, PPP3R1 / Fold change vs veh, PPP3R1 / RFU, PIK3R1 / Fold change vs veh, PIK3R1 / RFU, HNRNPA1 / Fold change vs veh, HNRNPA1 / RFU, RNF170 / Fold change vs veh, RNF170 / RFU, ZNF28 / Fold change vs veh, ZNF28 / RFU, RNGTT / Fold change vs veh, RNGTT / RFU, OGT / Fold change vs veh, OGT / RFU, BRD1 / Fold change vs veh, BRD1 / RFU, MARS / Fold change vs veh, MARS / RFU, ZNF655 / Fold change vs veh, ZNF655 / RFU, FAHD1 / Fold change vs veh, FAHD1 / RFU, BDP1 / Fold change vs veh, BDP1 / RFU, LRRCC1 / Fold change vs veh, LRRCC1 / RFU, ARID1A / Fold change vs veh, ARID1A / RFU, ZNF146 / Fold change vs veh, ZNF146 / RFU, ZNF330 / Fold change vs veh, ZNF330 / RFU, GPN3 / Fold change vs veh, GPN3 / RFU, C9orf123 / Fold change vs veh, C9orf123 / RFU, N4BP2L2 / Fold change vs veh, N4BP2L2 / RFU, ARFIP1 / Fold change vs veh, ARFIP1 / RFU, FAM179B / Fold change vs veh, FAM179B / RFU, BCL10 / Fold change vs veh, BCL10 / RFU, UHRF1BP1L / Fold change vs veh, UHRF1BP1L / RFU, BET1 / Fold change vs veh, BET1 / RFU, CNOT2 / Fold change vs veh, CNOT2 / RFU, ZNF268 / Fold change vs veh, ZNF268 / Fold change vs veh, ZNF507 / RFU, DGCR2 / Fold change vs veh, DGCR2 / RFU, WDSUB1 / Fold change vs veh, WDSUB1 / Fold change vs veh, HSP90B1 /// MIR3652 / RFU, ADSS / Fold change vs veh, ADSS / RFU, GK / Fold change vs veh, GK / RFU, ZNF148 / Fold change vs veh, ZNF148 / RFU, TAF9 / Fold change vs veh, TAF9 / RFU, SLC1A5 / Fold change vs veh, SLC1A5 / RFU, SLMO2 / Fold change vs veh, SLMO2 / RFU, ABCC4 / Fold change vs veh, ABCC4 / RFU, LOC101060439 /// RAP1B / Fold change vs veh, LOC101060439 /// RAP1B / RFU, RFX7 / Fold change vs veh, RFX7 / RFU, GTPBP10 / Fold change vs veh, GTPBP10 / RFU, CNEP1R1 / Fold change vs veh, CNEP1R1 / RFU, BIVM-ERCC5 /// ERCC5 / Fold change vs veh, BIVM-ERCC5 /// ERCC5 / RFU, ILF3 / Fold change vs veh, ILF3 / RFU 11762660_at / Fold change /veh 11762660_at / RFU VCAN (11757783_s_at) / Fold change /veh VCAN (11757783_s_at) / RFU DDX43 (11728927_at) / Fold change /veh DDX43 (11728927_at) / RFU KRT8 (11758188_x_at) / Fold change /veh KRT8 (11758188_x_at) / RFU NKD1 (11759106_at) / Fold change /veh NKD1 (11759106_at) / RFU SRD5A1 (11742802_a_at) / Fold change /veh SRD5A1 (11742802_a_at) / RFU TPSAB1 /// TPSB2 (11721975_s_at) / Fold change /veh TPSAB1 /// TPSB2 (11721975_s_at) / RFU GSTM3 (11746129_a_at) / Fold change /veh GSTM3 (11746129_a_at) / RFU IL23R (11737362_x_at) / Fold change /veh IL23R (11737362_x_at) / RFU TMEM51 (11727254_a_at) / Fold change /veh TMEM51 (11727254_a_at) / RFU PIWIL2 (11732686_x_at) / Fold change /veh PIWIL2 (11732686_x_at) / RFU ORM1 (11744905_x_at) / Fold change /veh ORM1 (11744905_x_at) / RFU CCDC152 (11743942_at) / Fold change /veh CCDC152 (11743942_at) / RFU ECM1 (11717891_a_at) / Fold change /veh ECM1 (11717891_a_at) / RFU IL23R (11748794_a_at) / Fold change /veh IL23R (11748794_a_at) / RFU TNFAIP8L3 (11732012_x_at) / Fold change /veh TNFAIP8L3 (11732012_x_at) / RFU MBOAT4 (11741988_at) / Fold change /veh MBOAT4 (11741988_at) / RFU 11764193_at / Fold change /veh 11764193_at / RFU TMEM53 (11763286_at) / Fold change /veh TMEM53 (11763286_at) / RFU MAGEB2 (11727129_at) / Fold change /veh MAGEB2 (11727129_at) / RFU TMEM200A (11744735_a_at) / Fold change /veh TMEM200A (11744735_a_at) / RFU CCDC152 (11751479_a_at) / Fold change /veh CCDC152 (11751479_a_at) / RFU FAM211A (11726209_a_at) / Fold change /veh FAM211A (11726209_a_at) / RFU RGS16 (11746705_a_at) / Fold change /veh RGS16 (11746705_a_at) / RFU VCAN (11755009_s_at) / Fold change /veh VCAN (11755009_s_at) / RFU RHOB (11743442_s_at) / Fold change /veh RHOB (11743442_s_at) / RFU RGS16 (11720943_a_at) / Fold change /veh RGS16 (11720943_a_at) / RFU RGS16 (11720944_at) / Fold change /veh RGS16 (11720944_at) / RFU, VPS4B / Fold change vs veh, VPS4B / RFU, CREB1 / Fold change vs veh, CREB1 / RFU, DNAJC13 / Fold change vs veh, DNAJC13 / RFU, GNAQ / Fold change vs veh, GNAQ / RFU, CDK5R1 / Fold change vs veh, CDK5R1 / RFU, ZRANB3 / Fold change vs veh, ZRANB3 / RFU, CUL4A / Fold change vs veh, CUL4A / RFU, CCNY / Fold change vs veh, CCNY / RFU, UFL1 / Fold change vs veh, UFL1 / RFU, COG3 / Fold change vs veh, COG3 / RFU, DIAPH2 / Fold change vs veh, DIAPH2 / RFU, SKA2 / Fold change vs veh, SKA2 / RFU, AFF3 / Fold change vs veh, AFF3 / RFU, LMF1 / Fold change vs veh, LMF1 / RFU, IPO11 / Fold change vs veh, IPO11 / RFU, DFFB / Fold change vs veh, DFFB / RFU, FOXP1 / Fold change vs veh, FOXP1 / RFU, CARD8 / Fold change vs veh, CARD8 / RFU, STRN3 / Fold change vs veh, STRN3 / RFU, ADK / Fold change vs veh, ADK / RFU, RASSF2 / Fold change vs veh, RASSF2 / RFU, WIPF1 / Fold change vs veh, WIPF1 / RFU, LARP1B / Fold change vs veh, LARP1B / RFU, RASA1 / Fold change vs veh, RASA1 / RFU, RB1 / Fold change vs veh, RB1 / RFU, PPFIA1 / Fold change vs veh, PPFIA1 / RFU, MAT2A / Fold change vs veh, MAT2A / RFU, CCT5 / Fold change vs veh, CCT5 / RFU, WDR92 / Fold change vs veh, WDR92 / RFU, CUX1 / Fold change vs veh, CUX1 / RFU, TTC7A / Fold change vs veh, TTC7A / RFU, TMEM135 / Fold change vs veh, TMEM135 / RFU, DEPTOR / Fold change vs veh, DEPTOR / RFU, CPM / Fold change vs veh, CPM / RFU, DNAJB6 / Fold change vs veh, DNAJB6 / RFU, CACNA2D3 / Fold change vs veh, CACNA2D3 / RFU, DTX4 / Fold change vs veh, DTX4 / RFU, TFCP2 / Fold change vs veh, TFCP2 / RFU, GMCL1 /// GMCL1P1 / Fold change vs veh, GMCL1 /// GMCL1P1 / RFU, AEBP2 / Fold change vs veh, AEBP2 / RFU, SNHG1 /// SNORD22 /// SNORD25 /// SNORD26 /// SNORD27 /// SNORD28 /// SNORD29 /// SNORD31 / Fold change vs veh, SNHG1 /// SNORD22 /// SNORD25 /// SNORD26 /// SNORD27 /// SNORD28 /// SNORD29 /// SNORD31 / Fold change (Aza/veh), C12orf56 (ProbeSet 11735607_a_at) / Fold change (ACY-1035/veh), C12orf56 (ProbeSet 11735607_a_at) / Fold change (Aza/veh), FGFR1OP (ProbeSet 11751329_s_at) / Fold change (ACY-1035/veh), FGFR1OP (ProbeSet 11751329_s_at) / Fold change (Aza/veh), VPS36 (ProbeSet 11739960_a_at) / Fold change (ACY-1035/veh), VPS36 (ProbeSet 11739960_a_at) / RFU SYPL1 (11715823_x_at) / Fold change /veh SYPL1 (11715823_x_at) / RFU IGFBP7 (11715501_s_at) / Fold change /veh IGFBP7 (11715501_s_at) / RFU REEP3 (11722064_at) / Fold change /veh REEP3 (11722064_at) / RFU IGLL1 (11728026_x_at) / Fold change /veh IGLL1 (11728026_x_at): dose or concentration left out as unconfirmed
Conditions: ProbeSet 11728314_at; LIST B

Nc1ncn([C@@H]2O[C@H](CO)[C@@H](O)[C@H]2O)c(=O)n1 [azacitidine]
Fold change vs veh, ZNF148: 0.99

Source: article PMC5218480 (PLoS ONE, 2017)
